Laboratory results reported in patent publication US6737383B1, “Herbicidal oxadiazolidines” (priority 1999, dated 2004).

Tests used:
[1] = tested on: rape; experiment: Test B pre/postemergence rape; assay type: in vivo, Brassica napus
Outline: (§1)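 Herbicidal effect was estimated by eye on a ten-point control scale after plants spent twelve to sixteen days in a greenhouse following soil or foliar treatment. Foliar sprays targeted plants at one to four leaves; all doses were formulated in a non-phytotoxic solvent with surfactant.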

[2] = tested on: surinam grass; experiment: Test B pre/postemergence surinam grass; assay type: in vivo, Brachiaria decumbens
Outline: as §1

[3] = tested on: giant foxtail; experiment: Test B pre/postemergence giant foxtail; assay type: in vivo, Setaria faberii
Outline: as §1

[4] = tested on: crabgrass; experiment: Test B pre/postemergence crabgrass; assay type: in vivo, Digitaria sanguinalis
Outline: as §1

[5] = tested on: blackgrass; experiment: Test B pre/postemergence blackgrass; assay type: in vivo, Alopecurus myosuroides
Outline: as §1

[6] = tested on: bedstraw; experiment: Test B pre/postemergence bedstraw; assay type: in vivo, Galium aparine
Outline: as §1

[7] = tested on: rice; experiment: Test B flood test rice; assay type: in vivo, Oryza sativa
Outline: (§2)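 Read-out is a visual response score from 0 (no effect) to 10 (complete control), assigned by comparison with untreated controls. Treatment was applied at the 2-leaf stage, and plants stayed in the greenhouse for twelve to sixteen days before scoring.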

[8] = tested on: wheat; experiment: Test B pre/postemergence wheat; assay type: in vivo, Triticum aestivum
Outline: as §1

[9] = tested on: bamyardgrass; experiment: Test B flood test barnyardgrass; assay type: in vivo, Echinochloa crus-galli
Outline: as §2

[10] = tested on: sugar beet; experiment: Test B pre/postemergence sugar beet; assay type: in vivo, Beta vulgaris
Outline: as §1

[11] = tested on: smallflower flatsedge; experiment: Test B flood test smallflower flatsedge; assay type: in vivo, Cyperus difformis
Outline: as §2

[12] = tested on: purple nutsedge; experiment: Test B pre/postemergence purple nutsedge; assay type: in vivo, Cyperus rotundus
Outline: as §1

[13] = tested on: pigweed; experiment: Test B pre/postemergence pigweed; assay type: in vivo, Amaranthus retroflexus
Outline: as §1

[14] = tested on: morningglory; experiment: Test B pre/postemergence morningglory; assay type: in vivo, Ipomoea hederacea
Outline: as §1

[15] = tested on: wild oat; experiment: Test B pre/postemergence wild oat; assay type: in vivo, Avena fatua
Outline: as §1

[16] = tested on: corn; experiment: Test B pre/postemergence corn; assay type: in vivo, Zea mays
Outline: as §1

[17] = Preemergence, Rate 62 g/ha, scale of 0 to 10 where 0 is no effect and 10 is complete control
[18] = Preemergence, Rate 125 g/ha, 0 is no effect, 10 is complete control
[19] = Preemergence, Rate 250 g/ha, scale 0 to 10, 0 is no effect, 10 is complete control
[20] = Preemergence, Rate 500 g/ha, scale 0 to 10 (0 no effect, 10 complete control)
[21] = Rate 62 g/ha, Postemergence, scale of 0 to 10 where 0 is no effect and 10 is complete control
[22] = Rate 125 g/ha, Postemergence, scale 0 to 10
[23] = Rate 500 g/ha, Postemergence, scale 0 to 10
[24] = Rate 62 g/ha, headed Pre-emergence (flood test species), scale 0 to 10 (0 no effect, 10 complete control)
[25] = Rate 125 g/ha, Pre-emergence, flood test species, scale 0 to 10 where 0 is no effect and 10 is complete control
[26] = Rate 250 g/ha, Pre-emergence, flood-test species, scale 0 to 10, 0 is no effect, 10 is complete control
[27] = Rate 500 g/ha, headed Pre-emergence (flood test species), scale 0 to 10 (0 no effect, 10 complete control)

SMILES: Cc1nc(C)c(Cn2c(=O)on(C(=O)N(c3ccc(F)cc3)C(C)C)c2=O)s1 [Compound 192]
- Rape plant response rating [1, 17]: 0
- Rape plant response rating (0 to 10 scale) [1, 18]: 0
- Rape plant response rating [1, 19]: 4
- Rape plant response rating [1, 20]: 9
- Rape plant response rating [1, 21]: 0
- Rape plant response rating [1, 22]: 0
- Plant response rating (0 to 10; 0 is no effect, 10 is complete control), Rape ([1]; Rate 250 g/ha, Postemergence): 2
- Rape plant response rating [1, 23]: 2
- B. signalgrass plant response rating [2, 17]: 0
- B. signalgrass plant response rating (0 to 10 scale) [2, 18]: 0
- B. signalgrass plant response rating [2, 19]: 6
- B. signalgrass plant response rating [2, 20]: 6
- B. signalgrass plant response rating [2, 21]: 0
- B. signalgrass plant response rating ([2]; Rate 125 g/ha, Postemergence, scale 0 (no effect) to 10 (complete control)): 0
- Plant response rating, B. signalgrass ([2]; Rate 250 g/ha, Postemergence, scale 0 to 10, 0 is no effect, 10 is complete control): 0
- B. signalgrass plant response rating ([2]; Rate 500 g/ha, Postemergence, scale 0 to 10, 0 no effect, 10 complete control): 2
- Giant foxtail plant response rating [3, 17]: 8
- Giant foxtail plant response rating (0 to 10 scale) [3, 18]: 9
- Giant foxtail plant response rating [3, 19]: 10
- Giant foxtail plant response rating [3, 20]: 10
- Giant foxtail plant response rating [3, 21]: 0
- Giant foxtail plant response rating [3, 22]: 0
- Plant response rating (0 to 10; 0 is no effect, 10 is complete control), Giant foxtail ([3]; Rate 250 g/ha, Postemergence): 0
- Giant foxtail plant response rating [3, 23]: 1
- Crabgrass plant response rating [4, 17]: 2
- Crabgrass plant response rating (0 to 10 scale) [4, 18]: 6
- Crabgrass plant response rating [4, 19]: 7
- Crabgrass plant response rating [4, 20]: 9
- Crabgrass plant response rating [4, 21]: 1
- Crabgrass plant response rating [4, 22]: 1
- Plant response rating (0 to 10; 0 is no effect, 10 is complete control), Crabgrass ([4]; Rate 250 g/ha, Postemergence): 1
- Crabgrass plant response rating [4, 23]: 2
- Blackgrass plant response rating [5, 17]: 5
- Blackgrass plant response rating (0 to 10 scale) [5, 18]: 5
- Blackgrass plant response rating [5, 19]: 6
- Blackgrass plant response rating [5, 20]: 7
- Blackgrass plant response rating [5, 21]: 0
- Blackgrass plant response rating [5, 22]: 0
- Plant response rating (0 to 10; 0 is no effect, 10 is complete control), Blackgrass ([5]; Rate 250 g/ha, Postemergence): 0
- Bedstraw plant response rating [6, 17]: 0
- Bedstraw plant response rating (0 to 10 scale) [6, 18]: 0
- Bedstraw plant response rating [6, 19]: 0
- Bedstraw plant response rating [6, 20]: 0
- Bedstraw plant response rating [6, 21]: 0
- Bedstraw plant response rating [6, 22]: 0
- Plant response rating (0 to 10; 0 is no effect, 10 is complete control), Bedstraw ([6]; Rate 250 g/ha, Postemergence): 0
- Bedstraw plant response rating [6, 23]: 0
- Rice plant response rating [7, 24]: 0
- Rice plant response rating [7, 25]: 0
- Rice plant response rating [7, 26]: 0
- Plant response rating, Rice [7, 27]: 0
- Wheat plant response rating [8, 17]: 0
- Wheat plant response rating [8, 19]: 0
- Wheat plant response rating [8, 20]: 0
- Wheat plant response rating [8, 21]: 0
- Wheat plant response rating [8, 22]: 0
- Plant response rating (0 to 10; 0 is no effect, 10 is complete control), Wheat ([8]; Rate 250 g/ha, Postemergence): 0
- Barnyardgrass plant response rating [9, 24]: 0
- Barnyardgrass plant response rating [9, 25]: 0
- Barnyardgrass plant response rating [9, 26]: 0
- Plant response rating, Barnyardgrass [9, 27]: 0
- Sugarbeets plant response rating [10, 17]: 0
- Sugarbeets plant response rating (0 to 10 scale) [10, 18]: 0
- Sugarbeets plant response rating [10, 19]: 0
- Sugarbeets plant response rating [10, 20]: 8
- Sugarbeets plant response rating [10, 21]: 0
- Sugarbeets plant response rating [10, 22]: 0
- Plant response rating (0 to 10; 0 is no effect, 10 is complete control), Sugarbeets ([10]; Rate 250 g/ha, Postemergence): 0
- Sugarbeets plant response rating [10, 23]: 5
- S. Flatsedge plant response rating [11, 24]: 0
- S. Flatsedge plant response rating [11, 25]: 0
- S. Flatsedge plant response rating [11, 26]: 0
- S. Flatsedge plant response rating ([11]; Rate 500 g/ha, Pre-emergence, flood test species, scale 0 to 10 (0 no effect, 10 complete control)): 0
- Nutsedge plant response rating [12, 17]: 0
- Nutsedge plant response rating (0 to 10 scale) [12, 18]: 0
- Nutsedge plant response rating [12, 21]: 0
- Nutsedge plant response rating [12, 22]: 0
- Plant response rating (0 to 10; 0 is no effect, 10 is complete control), Nutsedge ([12]; Rate 250 g/ha, Postemergence): 0
- Nutsedge plant response rating [12, 23]: 0
- Redroot pigweed plant response rating [13, 17]: 0
- Redroot pigweed plant response rating (0 to 10 scale) [13, 18]: 2
- Redroot pigweed plant response rating [13, 19]: 5
- Redroot pigweed plant response rating [13, 20]: 9
- Redroot pigweed plant response rating [13, 21]: 0
- Redroot pigweed plant response rating [13, 22]: 1
- Plant response rating (0 to 10; 0 is no effect, 10 is complete control), Redroot pigweed ([13]; Rate 250 g/ha, Postemergence): 3
- Redroot pigweed plant response rating [13, 23]: 7
- Morningglory plant response rating [14, 17]: 0
- Morningglory plant response rating (0 to 10 scale) [14, 18]: 0
- Morningglory plant response rating [14, 19]: 0
- Morningglory plant response rating [14, 20]: 3
- Morningglory plant response rating [14, 21]: 1
- Morningglory plant response rating [14, 22]: 3
- Plant response rating (0 to 10; 0 is no effect, 10 is complete control), Morningglory ([14]; Rate 250 g/ha, Postemergence): 6
- Morningglory plant response rating [14, 23]: 6
- Wild oats plant response rating [15, 17]: 0
- Wild oats plant response rating [15, 19]: 5
- Wild oats plant response rating [15, 20]: 7
- Wild oats plant response rating [15, 21]: 0
- Wild oats plant response rating [15, 22]: 0
- Plant response rating (0 to 10; 0 is no effect, 10 is complete control), Wild oats ([15]; Rate 250 g/ha, Postemergence): 0
- Corn plant response rating [16, 17]: 0
- Corn plant response rating (0 to 10 scale) [16, 18]: 0
- Corn plant response rating [16, 19]: 0
- Corn plant response rating [16, 20]: 4
- Corn plant response rating [16, 21]: 0
- Corn plant response rating [16, 22]: 0
- Plant response rating (0 to 10; 0 is no effect, 10 is complete control), Corn ([16]; Rate 250 g/ha, Postemergence): 0
- Corn plant response rating [16, 23]: 0
